Legend:
[1] = test system: MAPK and PI3K signaling in A375 cells (BRAF^V600E); assay: Western blot of MAPK and PI3K signaling in A375 cells; format: cell-based
Protocol: (§1) Western Blotting: Cells were seeded in 24-well poly-D-lysine coated plates and treated with the indicated peptides the next day. Following incubation, 100 μl of 1X Bolt™ LDS sample buffer supplemented with NuPAGE® sample reducing agent was added. Wells were scrapped using wide orifice
bath sonicator (QSonica).
(§2) onto nitrocellulose membranes using the Trans-Blot® Turbo™ semi-dry sy s te m ( Bio -rad), and blocked for 1 hour at room temperature with tris-buffered saline (TBS) Odyssey blocking buffer (Li- Cor). Blots were probed with the appropriate primary antibodies overnight at 4°C in Odyssey blocking buffer supplemented with 0.1% Tween-20, followed by the secondary antibodies IRDye® 680RD donkey anti-mouse IgG or IRDye® 800CW donkey anti-rabbit IgG (Li- Cor) for 1 hour at room temperature.
(§3) Fluorescent signals were imaged and quantified using Odyssey® CLx. Primary antibodies used were:

[2] = test system: MAPK and PI3K signaling in SK-MEL-28 cells (BRAF^V600E); assay: Western blot of MAPK and PI3K signaling in SK-MEL-28 cells; format: cell-based
Protocol: as §1
bath sonicator (QSonica).
as §2, §3

in vitro = settings: human
rat mast cells = assay: Ex vivo rat mast cell degranulation and histamine release assay; settings: for rMCD histamine release threshold: lowest concentration at which histamine release was observed, rat peritoneal mast cells, 30 min; for activation of mast cell degranulation (histamine release), in words: ex vivo, rat mast cells
Protocol: The reported rat mast cell degranulation (rMCD) value in Table 4 is a threshold for the lowest concentration at which a two-fold change in histamine release was observed.
In Vitro Rat M ast Cell Degranulation and H istamine Release Ass ess m ent: Peritoneal lavage was isolated
from Wister- Han rats as described in literature. In brief, animals were anesthetized with xylene followed
by an injection of about 10 mL of Tyrode buffer (12 mM NaHCO3, 127 mM NaCl, 5 mM KCl, 0.5 mM
NaH2PO4, 1 mM MgCl2, 5 mM Glucose and 10 mM HEPES, pH 7.4) into the peritoneal cavity. After a
gentle abdomen massage, peritoneal lavage was collected and centrifuged at 350 x g for 5 minutes. Cell
pellets were resuspended in Tyrode buffer with 10% heat inactivated rat serum to reach a final
Freshly isolated rat peritoneal cells were aliquoted to a 96 well tissue-
culture plate (100 µL per well).
peptides for 30 minutes at 37°C. After incubation, the plate was centrifuged at 350 x g for 2 minutes at
room temperature. Supernatant were collected and histamine concentration was measured by ELISA
(Neogen, Lansing, MI) following vendor’s instructions. Amount of histamine in the supernatant was
presented as ng/mL. A detection of histamine release was defined as the histamine concentration in
from 10 vehicle-control treated samples from the same animal). The lowest concentration that a

[3] = test system: pERK and pAKT in AsPC-1 cells; assay: Western blot of KRAS signaling (pERK, pAKT) in AsPC-1 cells; format: cell-based; settings: 1 hour and 16 hour time-points
Protocol: as §1
bath sonicator (QSonica).
as §2, §3
(D14E12) (Cell Signaling Technology, #8 24 2), phospho-IκBα (Ser32) (Cell Signaling Technology, #2 85 9) , IκBα (L35A5) (Cell Signaling Technology, #4 81 4) , NanoLuc (Promega, N7000) and pan-RAS (Sigma,
mM PMSF and Co mplete™ EDTA-free protease inhibitor cocktail (Roche) for 30 min with intermittent

Structure (SMILES) | half-life at 1 µM (in vitro; HeLa cell homogenate) | rMCD histamine release threshold (rat mast cells) | other results
Cc1ccc(NC(=O)c2cccc(C(C)(C)C#N)c2)cc1Nc1ccc2ncn(C)c(=O)c2c1 [AZ628, reference compound] | – | – | inhibition of MAPK signaling in A375 [1]: inhibited MAPK signaling; inhibition of MAPK signaling in SK-MEL-28 [2]: inhibited MAPK signaling
CC[C@H](C)[C@@H]1NC(=O)[C@H](Cc2ccc(O)cc2)NC(=O)[C@H](CC(C)C)NC(=O)[C@]2(C)CCCN2C(=O)[C@H](NC(=O)[C@H](CCCNC(=N)N)NC(=O)[C@H](CCCNC(=N)N)NC(=O)[C@H](CCCCN=[N+]=[N-])NC(C)=O)CSCSC[C@@H](C(=O)N[C@@H](CCCNC(=N)N)C(=O)N[C@@H](CCCNC(=N)N)C(N)=O)NC(=O)[C@H](C(C)C)NC(=O)[C@@H]2CCCN2C(=O)[C@H](CC(=O)O)NC(=O)[C@H](Cc2ccc(O)cc2)NC(=O)[C@H](CO)NC1=O [Compound 14] | 2.37 h | – | –
CC[C@H](C)[C@@H]1NC(=O)[C@H](Cc2ccc(O)cc2)NC(=O)[C@](C)(CC(C)C)NC(=O)[C@@H]2CCCN2C(=O)[C@H](NC(=O)[C@H](CCCNC(=N)N)NC(=O)[C@H](CCCNC(=N)N)NC(=O)[C@H](CCCCN=[N+]=[N-])NC(C)=O)CSCSC[C@@H](C(=O)N[C@@H](CCCNC(=N)N)C(=O)N[C@@H](CCCNC(=N)N)C(N)=O)NC(=O)[C@H](C(C)C)NC(=O)[C@@H]2CCCN2C(=O)[C@H](CC(=O)O)NC(=O)[C@H](Cc2ccc(O)cc2)NC(=O)[C@H](CO)NC1=O [Compound 15] | 1.9 h | – | –
CC[C@H](C)[C@@H]1NC(=O)[C@](C)(Cc2ccccc2)NC(=O)[C@H](CC(C)C)NC(=O)[C@@H]2CCCN2C(=O)[C@H](NC(=O)[C@H](CCCNC(=N)N)NC(=O)[C@H](CCCNC(=N)N)NC(=O)[C@H](CCCCN=[N+]=[N-])NC(C)=O)CSCSC[C@@H](C(=O)N[C@@H](CCCNC(=N)N)C(=O)N[C@@H](CCCNC(=N)N)C(N)=O)NC(=O)[C@H](C(C)C)NC(=O)[C@@H]2CCCN2C(=O)[C@H](CC(=O)O)NC(=O)[C@H](Cc2ccc(O)cc2)NC(=O)[C@H](CO)NC1=O [Compound 16] | > 6.22 h | – | –
CC[C@H](C)[C@@H]1NC(=O)[C@H](Cc2ccc(O)cc2)NC(=O)[C@H](CC(C)C)NC(=O)[C@@H]2CCCN2C(=O)[C@H](NC(=O)[C@H](CCCNC(=N)N)NC(=O)[C@H](CCCNC(=N)N)NC(=O)[C@H](CCCCN=[N+]=[N-])NC(C)=O)CSCSC[C@@H](C(=O)N[C@@H](CCCNC(=N)N)C(=O)N[C@@H](CCCNC(=N)N)C(N)=O)NC(=O)[C@H](C(C)C)NC(=O)[C@@H]2CCCN2C(=O)[C@H](CC(=O)O)NC(=O)[C@H](Cc2ccc(O)cc2)NC(=O)[C@](C)(CO)NC1=O [Compound 17] | 2.57 h | – | –
CC[C@H](C)[C@@H]1NC(=O)[C@H](Cc2ccc(O)cc2)NC(=O)[C@H](CC(C)C)NC(=O)[C@@H]2CCCN2C(=O)[C@H](NC(=O)[C@H](CCCNC(=N)N)NC(=O)[C@H](CCCNC(=N)N)NC(=O)[C@H](CCCCN=[N+]=[N-])NC(C)=O)CSCSC[C@@H](C(=O)N[C@@H](CCCNC(=N)N)C(=O)N[C@@H](CCCNC(=N)N)C(N)=O)NC(=O)[C@H](C(C)C)NC(=O)[C@@H]2CCCN2C(=O)[C@H](CC(=O)O)NC(=O)[C@](C)(Cc2ccc(O)cc2)NC(=O)[C@H](CO)NC1=O [Compound 18] | 1.18 h | – | –
CC[C@H](C)[C@@H]1NC(=O)[C@H](Cc2ccc(O)cc2)NC(=O)[C@H](CC(C)C)NC(=O)[C@@H]2CCCN2C(=O)[C@H](NC(=O)[C@H](CCCNC(=N)N)NC(=O)[C@H](CCCNC(=N)N)NC(=O)[C@H](CCCCN=[N+]=[N-])NC(C)=O)CSCSC[C@@H](C(=O)N[C@@H](CCCNC(=N)N)C(=O)N[C@@H](CCCNC(=N)N)C(N)=O)NC(=O)[C@H](C(C)C)NC(=O)[C@@H]2CCCN2C(=O)[C@](C)(CC(=O)O)NC(=O)[C@H](Cc2ccc(O)cc2)NC(=O)[C@H](CO)NC1=O [Compound 19] | 0.683 h | – | –
CC[C@H](C)[C@@H]1NC(=O)[C@H](Cc2ccc(O)cc2)NC(=O)[C@H](CC(C)C)NC(=O)[C@@H]2CCCN2C(=O)[C@H](NC(=O)[C@H](CCCNC(=N)N)NC(=O)[C@H](CCCNC(=N)N)NC(=O)[C@H](CCCCN=[N+]=[N-])NC(C)=O)CSCSC[C@@H](C(=O)N[C@@H](CCCNC(=N)N)C(=O)N[C@@H](CCCNC(=N)N)C(N)=O)NC(=O)[C@H](C(C)C)NC(=O)[C@]2(C)CCCN2C(=O)[C@H](CC(=O)O)NC(=O)[C@H](Cc2ccc(O)cc2)NC(=O)[C@H](CO)NC1=O [Compound 20] | 2.23 h | – | –
CC[C@H](C)[C@@H]1NC(=O)[C@H](Cc2ccc(O)cc2)NC(=O)[C@H](CC(C)C)NC(=O)[C@@H]2CCCN2C(=O)[C@H](NC(=O)[C@H](CCCNC(=N)N)NC(=O)[C@H](CCCNC(=N)N)NC(=O)[C@H](CCCCN=[N+]=[N-])NC(C)=O)CSCSC[C@@](C)(C(=O)N[C@@H](CCCNC(=N)N)C(=O)N[C@@H](CCCNC(=N)N)C(N)=O)NC(=O)[C@H](C(C)C)NC(=O)[C@@H]2CCCN2C(=O)[C@H](CC(=O)O)NC(=O)[C@H](Cc2ccc(O)cc2)NC(=O)[C@H](CO)NC1=O [Compound 22] | 2 h | – | –
CC[C@H](C)[C@@H]1NC(=O)[C@H](Cc2ccc(O)cc2)NC(=O)[C@H](CC(C)C)NC(=O)[C@@H]2CCCN2C(=O)[C@H](NC(=O)[C@H](CCCNC(=N)N)NC(=O)[C@H](CCCNC(=N)N)NC(=O)[C@H](CCCNC(=N)N)NC(=O)[C@H](CCCCN=[N+]=[N-])NC(C)=O)CSCSC[C@@H](C(=O)N[C@@H](CCCNC(=N)N)C(=O)N[C@@H](CCCNC(=N)N)C(=O)N[C@@H](CCCNC(=N)N)C(N)=O)NC(=O)[C@H](C(C)C)NC(=O)[C@@H]2CCCN2C(=O)[C@H](CC(=O)O)NC(=O)[C@H](Cc2ccc(O)cc2)NC(=O)[C@H](CO)NC1=O [Compound 23] | – | ≥0.14 µM | –
CC[C@H](C)[C@@H]1NC(=O)[C@H](Cc2ccc(O)cc2)NC(=O)[C@H](CC(C)C)NC(=O)[C@@H]2CCCN2C(=O)[C@H](NC(=O)[C@H](CCCCN=[N+]=[N-])NC(C)=O)CSCSC[C@@H](C(=O)N[C@@H](CCCNC(=N)N)C(N)=O)NC(=O)[C@H](C(C)C)NC(=O)[C@@H]2CCCN2C(=O)[C@H](CC(=O)O)NC(=O)[C@H](Cc2ccc(O)cc2)NC(=O)[C@H](CO)NC1=O [Compound 24] | – | >100 µM | activation of mast cell degranulation (histamine release), in words (rat mast cells): free from this potential liability
CC[C@H](C)[C@@H]1NC(=O)[C@H](Cc2ccc(O)cc2)NC(=O)[C@H](CC(C)C)NC(=O)[C@@H]2CCCN2C(=O)[C@H](NC(=O)[C@H](CCCCN=[N+]=[N-])NC(C)=O)CSCSC[C@@H](C(N)=O)NC(=O)[C@H](C(C)C)NC(=O)[C@@H]2CCCN2C(=O)[C@H](CC(=O)O)NC(=O)[C@H](Cc2ccc(O)cc2)NC(=O)[C@H](CO)NC1=O [Compound 25] | – | >100 µM | activation of mast cell degranulation (histamine release), in words (rat mast cells): free from this potential liability
N#CC(=C(/N)Sc1ccccc1N)/C(C#N)=C(/N)Sc1ccccc1N [Compound U0126, reference compound] | – | – | inhibition of MAPK signaling in A375 [1]: inhibited MAPK signaling; inhibition of MAPK signaling in SK-MEL-28 [2]: inhibited MAPK signaling
CC[C@H](C)[C@@H]1NC(=O)[C@H](Cc2ccc(O)cc2)NC(=O)[C@H](CC(C)C)NC(=O)[C@@H]2CCCN2C(=O)[C@H](NC(=O)[C@H](CCCNC(=N)N)NC(=O)[C@H](CCCNC(=N)N)NC(=O)[C@H](CCCCN=[N+]=[N-])NC(C)=O)CSCSC[C@@H](C(=O)N[C@@H](CCCNC(=N)N)C(=O)N[C@@H](CCCNC(=N)N)C(N)=O)NC(=O)[C@H](C(C)C)NC(=O)[C@@H]2CCCN2C(=O)[C@H](CC(=O)O)NC(=O)[C@H](Cc2ccc(O)cc2)NC(=O)[C@H](CO)NC1=O [MP-1687] | – | ≥3.7 µM | half-life at 1 µM (in vitro; tissue homogenate): 0.617 h
CC[C@H](C)[C@@H]1NC(=O)[C@H](Cc2ccc(O)cc2)NC(=O)[C@H](CC(C)C)NC(=O)[C@@H]2CCCN2C(=O)[C@H](NC(=O)[C@H](CCCNC(=N)N)NC(=O)[C@H](CCCNC(=N)N)NC(=O)[C@H](CCCNC(=N)N)NC(=O)[C@H](CCCNC(=N)N)NC(=O)[C@H](CCCCN=[N+]=[N-])NC(C)=O)CSCSC[C@@H](C(=O)N[C@@H](CCCNC(=N)N)C(=O)N[C@@H](CCCNC(=N)N)C(=O)N[C@@H](CCCNC(=N)N)C(=O)N[C@@H](CCCNC(=N)N)C(N)=O)NC(=O)[C@H](C(C)C)NC(=O)[C@@H]2CCCN2C(=O)[C@H](CC(=O)O)NC(=O)[C@H](Cc2ccc(O)cc2)NC(=O)[C@H](CO)NC1=O [MP-6483] | – | ≥0.14 µM | inhibition of KRAS signaling (pERK, pAKT) by Western blot [3]: display cell-based inhibition
CC[C@H](C)[C@@H]1NC(=O)[C@H](Cc2ccc(O)cc2)NC(=O)[C@H](CC(C)C)NC(=O)[C@@H]2CCCN2C(=O)[C@H](NC(=O)[C@@H](CCCNC(=N)N)NC(=O)[C@@H](CCCNC(=N)N)NC(=O)[C@@H](CCCNC(=N)N)NC(=O)[C@@H](CCCNC(=N)N)NC(=O)[C@H](CCCCN=[N+]=[N-])NC(C)=O)CSCSC[C@@H](C(=O)N[C@H](CCCNC(=N)N)C(=O)N[C@H](CCCNC(=N)N)C(=O)N[C@H](CCCNC(=N)N)C(=O)N[C@H](CCCNC(=N)N)C(N)=O)NC(=O)[C@H](C(C)C)NC(=O)[C@@H]2CCCN2C(=O)[C@@H](CC(=O)O)NC(=O)[C@H](Cc2ccc(O)cc2)NC(=O)[C@H](CO)NC1=O [MP-9658, Ac-K(N3)-rrrr-cyclo(c(methylene)PLYISYdPVC)-rrrr-NH2] | – | – | inhibition of MAPK signaling in A375 [1]: inactive; inhibition of MAPK signaling in SK-MEL-28 [2]: inactive
CC[C@H](C)[C@@H]1NC(=O)[C@H](Cc2ccc(O)cc2)NC(=O)[C@H](CC(C)C)NC(=O)[C@@H]2CCCN2C(=O)[C@H](NC(=O)[C@H](CCCNC(=N)N)NC(=O)[C@H](CCCCN=[N+]=[N-])NC(C)=O)CSCSC[C@@H](C(=O)N[C@@H](CCCNC(=N)N)C(N)=O)NC(=O)[C@H](C(C)C)NC(=O)[C@@H]2CCCN2C(=O)[C@H](CC(=O)O)NC(=O)[C@H](Cc2ccc(O)cc2)NC(=O)[C@H](CO)NC1=O [MP-9903] | – | >100 µM | activation of mast cell degranulation (histamine release), in words (rat mast cells): free from this potential liability

Source: paper PMC8672774, “Discovery of cell active macrocyclic peptides with on-target inhibition of KRAS signaling” (Chemical Science, 2021)
